Data on 13 molecules can be found in patent publication US10894798B2, “Substituted dihydropyrrolopyrazole derivative” (UBE INDUSTRIES, LTD., priority 2015, dated 2021).

For one test, the target named is T1, PLK1 (Homo sapiens, UniProt P53350).
T1 construct: purchased Carna Biosciences, Inc. 05-157
In words: PLK1 enzyme (polo-like kinase) inhibition test. Format: biochemical. Particulars: [γ-33P]ATP, casein substrate; Ki=IC50/(1+S/Km); read-out: Ki value of PLK1 inhibitory activity. As to the method:
The preparation of a buffer solution was performed by mixing a 3-morpholinopropanesulfonic acid buffer solution (MOPS buffer solution) (pH 7.0), dithiothreitol (DTT), and magnesium acetate (Mg(CH3COO)2). A 1 mM [γ-^33P]ATP solution was used by diluting a 10 mM ATP solution and a commercially available [γ-^33P]ATP solution (manufactured by Perkin Elmer, Inc., Code No. NEG-302H) with the buffer solution. A PLK1 solution was used by diluting commercially available PLK1 (manufactured by Carna Biosciences, Inc., Catalog No. 05-157) with the buffer solution. A substrate solution was used by diluting casein with the buffer solution. As for the preparation of a reaction solution, the buffer solution, the 500 μM [γ-^33P]ATP solution, the PLK1 solution, and the substrate solution were mixed at 4° C. to obtain a reaction solution.
(§1) PLK1 enzyme reaction was performed by adding 5 μL of a test compound solution prepared with 10% DMSO/90% injectable distilled water, and 45 μL of the reaction solution in a 1.5 mL microtube at 4° C. and reacting in the microtube at 30° C. for 20 minutes in a water bath incubator. After the reaction, a 10% aqueous trichloroacetic acid (TCA) solution was added to each microtube while cooled to 4° C., and mixed in a vortex mixer to terminate the reaction. The resultant was left standing at 4° C. for 10 minutes and then centrifuged, and the supernatant was discarded. Next, a 2% aqueous trichloroacetic acid (TCA) solution was added thereto, mixed in a vortex mixer, and then centrifuged, and the supernatant was discarded. This washing operation was performed twice. After the washing, precipitates were dissolved in a 1 N aqueous sodium hydroxide (NaOH) solution, and the energy quantity (radioactivity) of the reaction product was measured with a liquid scintillation counter.
The calculation of the inhibitory activity of the test compound against PLK1 was performed as a test compound concentration inhibiting 50% of the amount of ^33P bound to casein (IC50 value) by using EXSUS (version 8.1.0, manufactured by CAC Exicare Corp.).
(§2) The calculation of a Ki value was performed according to the following calculation expression wherein S represents the concentration of ATP contained in the reaction solution, and Km represents a Michaelis-Menten constant: Ki=IC50/(1+S/Km)

The subject of test [1] is human large intestine cancer cell line (HCT-116). In words: Human large intestine cancer (HCT-116) cell growth inhibition test. Particulars: HCT-116, 72 h, culture for 3 days, sulforhodamine B, read-out: GI50 value, HCT-116 cell growth inhibition. It counts as cell-based. Summed up: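 HCT-116 cells were seeded at 0.5 to 2.0×10^3 cells/well in McCoy's 5A with 10% FBS and dosed with compound at 0.1% final DMSO after overnight culture. Growth was measured by sulforhodamine B absorbance after 3 days. GI50 was calculated from the inhibition rate at each concentration.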

A further test addresses T2, CDK7 (Homo sapiens, UniProt P50613).
T2 construct: purchased Carna Biosciences, Inc. 04-108
Nature of the test: CDK7 enzyme inhibition test. It counts as biochemical. Particulars: [γ-33P]ATP, MBP substrate, 60 min preincubation at 25°C; Ki=IC50/(1+S/Km); read-out: Ki value of CDK7 inhibitory activity. Summed up:
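Commercial human CDK7 with myelin basic protein substrate in HEPES pH 7.4 buffer with DTT, Triton X-100, MgCl2; compound preincubated 60 min at 25° C, then reaction run 20 min at 30° C after adding [γ-^33P]ATP (500 μM solution). TCA-precipitated ^33P-MBP counted by scintillation; IC50 converted to Ki via Ki=IC50/(1+S/Km).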

For the next test, the target named is T3, CDK2 (Homo sapiens, UniProt P24941).
T3 construct: purchased Invitrogen Corp. PV3267
Nature of the test: CDK2 enzyme inhibition test. Format: biochemical. The note with it: [γ-33P]ATP, MBP substrate; Ki=IC50/(1+S/Km); read-out: Ki value of CDK2 inhibitory activity. As to the method: The preparation of a buffer solution was performed by mixing a N-2-hydroxyethylpiperazine-N′-2-ethanesulfonic acid buffer solution (HEPES buffer solution) (pH 7.4), dithiothreitol (DTT), Triton X-100, and magnesium chloride (MgCl2). A 500 μM [γ-^33P]ATP solution was used by diluting a 10 mM ATP solution and a commercially available [γ-^33P]ATP solution (manufactured by Perkin Elmer, Inc., Code No. NEG-302H) with the buffer solution. A CDK2 solution was used by diluting commercially available CDK2 (manufactured by Invitrogen Corp., Catalog No. PV3267) with the buffer solution. A substrate solution was used by diluting myelin basic protein (MBP) with the buffer solution. As for the preparation of a reaction solution, the buffer solution, the 500 μM [γ-^33P]ATP solution, the CDK2 solution, and the substrate solution were mixed at 4° C. to obtain a reaction solution.
as §1, with “CDK2 enzyme reaction” for “PLK1 enzyme reaction”, “mixed in vortex mixer,” for “mixed in a vortex mixer,”
The calculation of the inhibitory activity of the test compound against CDK2 was performed as a test compound concentration inhibiting 50% of the amount of ^33P bound to MBP (IC50 value) by using EXSUS (version 8.1.0, manufactured by CAC Exicare Corp.).
as §2

T1 sequence (P53350 whole entry): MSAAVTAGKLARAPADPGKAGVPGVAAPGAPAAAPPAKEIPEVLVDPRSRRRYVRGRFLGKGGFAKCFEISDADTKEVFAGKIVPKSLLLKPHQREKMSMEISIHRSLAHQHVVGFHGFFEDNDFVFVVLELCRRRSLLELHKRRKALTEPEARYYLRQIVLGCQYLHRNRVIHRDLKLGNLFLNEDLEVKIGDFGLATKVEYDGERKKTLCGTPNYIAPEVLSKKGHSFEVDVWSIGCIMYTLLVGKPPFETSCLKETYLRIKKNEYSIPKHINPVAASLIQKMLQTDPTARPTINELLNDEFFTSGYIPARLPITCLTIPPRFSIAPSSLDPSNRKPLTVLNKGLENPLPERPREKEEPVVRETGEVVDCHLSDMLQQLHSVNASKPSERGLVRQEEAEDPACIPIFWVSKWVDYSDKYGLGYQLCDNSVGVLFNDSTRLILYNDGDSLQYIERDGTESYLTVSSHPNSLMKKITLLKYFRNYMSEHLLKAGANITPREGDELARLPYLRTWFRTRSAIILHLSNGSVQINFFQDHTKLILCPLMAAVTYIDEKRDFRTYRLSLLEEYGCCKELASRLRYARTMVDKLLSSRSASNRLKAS
T2 sequence (P50613 whole entry): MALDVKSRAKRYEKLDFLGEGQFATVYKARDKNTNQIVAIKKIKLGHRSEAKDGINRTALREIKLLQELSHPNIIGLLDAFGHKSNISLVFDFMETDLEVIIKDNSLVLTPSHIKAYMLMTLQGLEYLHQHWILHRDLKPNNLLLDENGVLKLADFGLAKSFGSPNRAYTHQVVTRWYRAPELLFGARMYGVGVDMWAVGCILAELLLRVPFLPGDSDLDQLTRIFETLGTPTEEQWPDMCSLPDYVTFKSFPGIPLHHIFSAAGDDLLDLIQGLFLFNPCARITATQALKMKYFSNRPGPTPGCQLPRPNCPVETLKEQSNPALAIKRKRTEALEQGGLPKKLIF
T2 sequence (P51946 whole entry partner): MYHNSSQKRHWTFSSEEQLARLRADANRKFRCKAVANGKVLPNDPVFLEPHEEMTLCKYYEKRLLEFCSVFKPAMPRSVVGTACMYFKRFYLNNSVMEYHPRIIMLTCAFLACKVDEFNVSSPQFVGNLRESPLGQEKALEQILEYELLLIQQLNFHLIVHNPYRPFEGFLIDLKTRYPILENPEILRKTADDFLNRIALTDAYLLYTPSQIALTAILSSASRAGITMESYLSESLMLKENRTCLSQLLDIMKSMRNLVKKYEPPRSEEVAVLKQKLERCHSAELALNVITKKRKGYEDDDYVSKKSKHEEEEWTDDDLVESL
T2 sequence (P51948 whole entry partner): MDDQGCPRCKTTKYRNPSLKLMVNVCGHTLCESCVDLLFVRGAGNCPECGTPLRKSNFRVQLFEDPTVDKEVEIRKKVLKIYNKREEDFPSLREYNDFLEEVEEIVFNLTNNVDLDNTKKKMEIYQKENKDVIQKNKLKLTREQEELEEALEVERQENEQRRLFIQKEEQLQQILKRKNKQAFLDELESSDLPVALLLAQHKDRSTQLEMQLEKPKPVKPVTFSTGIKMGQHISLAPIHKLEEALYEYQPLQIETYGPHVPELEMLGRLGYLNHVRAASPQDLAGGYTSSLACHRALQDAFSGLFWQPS

With `CC1(C)c2[nH]nc(NC(=O)C3([Si](C)(C)C)CC3)c2CN1C(=O)Nc1c(F)ccc2ccoc12` [III-1049, N-(6-Fluorobenzofuran-7-yl)-6,6-dimethyl-3-[1-(trimethylsilyl)cyclopropanecarboxamido]-4,6-dihydropyrrolo[3,4-c]pyrazole-5 (1H)-carboxamide], the Ki – broadly, the dissociation constant of the complex between target and ligand, obtained from inhibition or displacement – at PLK1 was at least 5000 nM; at CDK7, at most 50 nM; on CDK2, at least 1000 nM. Also, the GI50 (usually the concentration at which growth is held to half of that of the control) in test [1] was at most 100 nM.

Turning to `CCc1ccccc1NC(=O)N1Cc2c(NC(=O)C3([Si](C)(C)C)CCC3)n[nH]c2C1(C)C` [IV-27, N-(2-Ethylphenyl)-6,6-dimethyl-3-[1-(trimethylsilyl)cyclobutanecarboxamido]-4,6-dihydropyrrolo[3,4-c]pyrazole-5(1H)-carboxamide], the values for the Ki on PLK1, on CDK7 and at CDK2 were at least 5000 nM, at most 50 nM and at least 1000 nM, respectively. Further, the GI50 in test [1] was at most 100 nM.

Regarding `CC1(C)c2[nH]nc(NC(=O)C3([Si](C)(C)C)CCC3)c2CN1C(=O)Nc1ccccc1C1CC1` [IV-39, N-(2-Cyclopropylphenyl)-6,6-dimethyl-3-[1-(trimethylsilyl)cyclobutanecarboxamido]-4,6-dihydropyrrolo[3,4-c]pyrazole-5(1H)-carboxamide], the Ki at PLK1 is at least 5000 nM; on CDK7, at most 50 nM; on CDK2 it was at least 1000 nM. In addition, the GI50 in test [1] was at most 100 nM.

With `CC(F)(F)c1ccccc1NC(=O)N1Cc2c(NC(=O)C3([Si](C)(C)C)CCC3)n[nH]c2C1(C)C` [IV-45, N-[2-(1,1-Difluoroethyl)phenyl]-6,6-dimethyl-3-[1-(trimethylsilyl)cyclobutanecarboxamido]-4,6-dihydropyrrolo[3,4-c]pyrazole-5(1H)-carboxamide], the Ki on PLK1 was at least 5000 nM; at CDK7, at most 50 nM; at CDK2 it was at least 1000 nM. Besides, the GI50 in test [1] was at most 100 nM.

Take `CC1(C)c2[nH]nc(NC(=O)C3([Si](C)(C)C)CCC3)c2CN1C(=O)Nc1ccccc1OC(F)F` [IV-87, N-[2-(Difluoromethoxy)phenyl]-6,6-dimethyl-3-[1-(trimethylsilyl)cyclobutanecarboxamido]-4,6-dihydropyrrolo[3,4-c]pyrazole-5(1H)-carboxamide]: the results for the Ki on PLK1, at CDK7 and at CDK2 were at least 5000 nM, at most 50 nM and at least 1000 nM, respectively. Moreover, in test [1], the GI50 is at most 100 nM.

For `CC1(C)c2[nH]nc(NC(=O)C3([Si](C)(C)C)CCC3)c2CN1C(=O)Nc1c(F)cccc1F` [IV-105, N-(2,6-Difluorophenyl)-6,6-dimethyl-3-[1-(trimethylsilyl)cyclobutanecarboxamido]-4,6-dihydropyrrolo[3,4-c]pyrazole-5(1H)-carboxamide], the values for the Ki on PLK1, at CDK7 and on CDK2 were at least 5000 nM, at most 50 nM and at least 1000 nM, respectively. In addition, the GI50 in test [1] was at most 100 nM.

For the molecule `[2H]C([2H])([2H])Oc1cccc(F)c1NC(=O)N1Cc2c(NC(=O)C3([Si](C)(C)C)CCC3)n[nH]c2C1(C)C` [IV-177, N-[2-Fluoro-6-(methoxy-d3)phenyl]-6,6-dimethyl-3-[1-(trimethylsilyl)cyclobutanecarboxamido]-4,6-dihydropyrrolo[3,4-c]pyrazole-5(1H)-carboxamide], the Ki on PLK1 is at least 5000 nM; on CDK7, at most 50 nM; at CDK2, at least 1000 nM. Besides, the GI50 in test [1] was at most 100 nM.

Consider `CC1(C)c2[nH]nc(NC(=O)C3([Si](C)(C)C)CCC3)c2CN1C(=O)Nc1c(F)cccc1C#N` [IV-185, N-(2-Cyano-6-fluorophenyl)-6,6-dimethyl-3-[1-(trimethylsilyl)cyclobutanecarboxamido]-4,6-dihydropyrrolo[3,4-c]pyrazole-5 (1H)-carboxamide], for which the Ki on PLK1 was at least 5000 nM; on CDK7 it was at most 50 nM; on CDK2 it was at least 1000 nM. For the same molecule, in test [1], the GI50 is at most 100 nM.

`CC1(C)c2[nH]nc(NC(=O)C3([Si](C)(C)C)CCC3)c2CN1C(=O)Nc1c(Cl)cccc1Br` [IV-207, N-(2-Bromo-6-chlorophenyl)-6,6-dimethyl-3-[1-(trimethylsilyl)cyclobutanecarboxamido]-4,6-dihydropyrrolo[3,4-c]pyrazole-5 (1H)-carboxamide]: the Ki is at least 5000 nM on PLK1, at most 50 nM on CDK7 and at least 1000 nM at CDK2. The GI50 in test [1] is at most 100 nM.

`CC1(C)c2[nH]nc(NC(=O)C3([Si](C)(C)C)CCC3)c2CN1C(=O)Nc1c(Cl)cccc1C1CC1` [IV-231, N-(2-Chloro-6-cyclopropylphenyl)-6,6-dimethyl-3-[1-(trimethylsilyl)cyclobutanecarboxamido]-4,6-dihydropyrrolo[3,4-c]pyrazole-5(1H)-carboxamide]: the Ki at PLK1 was at least 5000 nM; at CDK7, at most 50 nM; on CDK2, at least 1000 nM. The GI50 in test [1] was at most 100 nM.

Turning to `CC1(C)c2[nH]nc(NC(=O)C3([Si](C)(C)C)CCC3)c2CN1C(=O)Nc1c(Cl)cccc1C(F)(F)F` [IV-239, N-[2-Chloro-6-(trifluoromethyl)phenyl]-6,6-dimethyl-3-[1-(trimethylsilyl)cyclobutanecarboxamido]-4,6-dihydropyrrolo[3,4-c]pyrazole-5(1H)-carboxamide], the inhibitory constant (Ki) was at least 5000 nM on PLK1, at most 50 nM on CDK7 and at least 1000 nM on CDK2. In addition, the GI50 in test [1] is at most 100 nM.

On to `Cc1c(F)cccc1NC(=O)N1Cc2c(NC(=O)C3([Si](C)(C)C)CCC3)n[nH]c2C1(C)C` [IV-357, N-(3-Fluoro-2-methylphenyl)-6,6-dimethyl-3-[1-(trimethylsilyl)cyclobutanecarboxamido]-4,6-dihydropyrrolo[3,4-c]pyrazole-5 (1H)-carboxamide], for which the results for the Ki at PLK1, at CDK7 and at CDK2 were at least 5000 nM, at most 50 nM and at least 1000 nM, respectively. Also, the GI50 in test [1] is at most 100 nM.

Turning to `Cc1ccc(Cl)cc1NC(=O)N1Cc2c(NC(=O)C3([Si](C)(C)C)CCC3)n[nH]c2C1(C)C` [IV-367, N-(5-Chloro-2-methylphenyl)-6,6-dimethyl-3-[1-(trimethylsilyl)cyclobutanecarboxamido]-4,6-dihydropyrrolo[3,4-c]pyrazole-5 (1H)-carboxamide], the Ki is at least 5000 nM at PLK1, at most 50 nM at CDK7 and at least 1000 nM at CDK2. In addition, the GI50 in test [1] was at most 100 nM.
